This note sets out measurements from patent US12655125B2 (SIRONAX LTD., priority 2020, dated 2026).

As usually defined, the EC50 is the concentration giving half of the maximal effect.

The first test has as its system HT-29 cells. The experiment in a line: HT29 Cells 0FBS Assay In Vitro (TNF-α/SMAC mimetic/zVAD-FMK induced necroptosis, CellTiter-Glo cell viability). The format is cell-based. The note with it: Homo sapiens, HT-29, 20 h, read-out: Cell activity (EC50) of Compounds 117-281. The essentials:
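Viability was measured by ATP luminescence (CellTiter-Glo) after 20 h at 37° C of compound exposure in 10-point, 1:3 dilutions. Necroptosis in FBS-free HT-29 cultures was driven by a TNF-α (10 ng/ml), SMAC mimetic (6 μM) and zVAD-FMK (10 μM) cocktail. EC50 values are geometric means from duplicate curves.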
On the technique in general: Cellular ATP, detected with luciferase, serves as a proxy for viable cell number.
In the case of `Cc1nn(CCO)c(C)c1-c1cc(OC2CN(C(=O)N3N=CC[C@H]3c3cc(F)cc(F)c3)C2)c(F)cn1` [compound 117, (S)-(5-(3,5-difluorophenyl)-4,5-dihydro-1H-pyrazol-1-yl)(3-((5-fluoro-2-(1-(2-hydroxyethyl)-3,5-dimethyl-1H-pyrazol-4-yl)pyridin-4-yl)oxy)azetidin-1-yl)methanone], the EC50 lay within 0.0001 to 0.1 µM.

The test is the same for the next values; noted with them: Homo sapiens; HT-29 cells, FBS free medium, TNF-α (10 ng/ml), SMAC mimetic (6 uM), zVAD-FMK (10 μM), 20 hours; geometric mean EC50; read-out: Cell activity (EC50) of Compounds 1-116.
As for `Cc1nn(-c2cc(OC3CN(C(=O)N4N=CC[C@H]4c4cc(F)cc(F)c4)C3)c(F)cn2)c(C)c1[N+](=O)[O-]` [compound 108, (S)-(5-(3,5-difluorophenyl)-4,5-dihydro-1H-pyrazol-1-yl)(3-((2-(3,5-dimethyl-4-nitro-1H-pyrazol-1-yl)-5-fluoropyridin-4-yl)oxy)azetidin-1-yl)methanone], the half-maximal effective concentration (EC50) was 0.0001 to 0.1 µM.
On the same count and under the same terms, to `Cc1nn(-c2cc(OC3CN(C(=O)N4N=CC[C@H]4c4cc(F)cc(F)c4)C3)c(F)cn2)c(C)c1N` [compound 109, (S)-(3-((2-(4-amino-3,5-dimethyl-11H-pyrazol-1-yl)-5-fluoropyridin-4-yl)oxy)azetidin-1-yl)(5-(3,5-difluorophenyl)-4,5-dihydro-1H-pyrazol-1-yl)methanone] belongs 0.0001 to 0.1 µM.
Same read-out and setting: in the case of `Cc1nn(-c2cc(OC3CN(C(=O)N4N=CC[C@H]4c4cc(F)cc(F)c4)C3)c(F)cn2)c(C)c1C(N)=O` [compound 110, (S)-1-(4-((1-(5-(3,5-difluorophenyl)-4,5-dihydro-1H-pyrazole-1-carbonyl)azetidin-3-yl)oxy)-5-fluoropyridin-2-yl)-3,5-dimethyl-1H-pyrazole-4-carboxamide] it was 0.0001 to 0.1 µM; in that of `Cn1ncc(C#N)c1-c1ccc(F)c(OC2CN(C(=O)N3N=CCC3c3cc(F)cc(F)c3)C2)n1` (stereo not shown) [compound 111, 5-(6-((1-(5-(3,5-difluorophenyl)-4,5-dihydro-1H-pyrazole-1-carbonyl)azetidin-3-yl)oxy)-5-fluoropyridin-2-yl)-1-methyl-11H-pyrazole-4-carbonitrile], 0.0001 to 0.1 µM.
Still for that read-out and setting: in the case of `Cc1cnn(C)c1-c1ccc(F)c(OC2CN(C(=O)N3N=CC[C@H]3c3cc(F)cc(F)c3)C2)c1` [compound 112, (S)-(5-(3,5-difluorophenyl)-4,5-dihydro-1H-pyrazol-1-yl)(3-(5-(1,4-dimethyl-1H-pyrazol-5-yl)-2-fluorophenoxy)azetidin-1-yl)methanone] it was 0.0001 to 0.1 µM; in that of `Cc1n[nH]c(C)c1-c1ccc(F)c(OC2CN(C(=O)N3N=CC[C@H]3c3cc(F)cc(F)c3)C2)c1` [compound 113, (S)-(5-(3,5-difluorophenyl)-4,5-dihydro-1H-pyrazol-1-yl)(3-(5-(3,5-dimethyl-1H-pyrazol-4-yl)-2-fluorophenoxy)azetidin-1-yl)methanone], 0.0001 to 0.1 µM.
Turning to `Cn1ncc(C#N)c1-c1ccc(F)c(OC2CN(C(=O)N3N=CCC3c3cc(F)cc(F)c3)C2)c1` (stereo not shown) [compound 114], the EC50 lay in the range of 0.0001 to 0.1 µM.
In the case of `Cn1ncc(C(N)=O)c1-c1ccc(F)c(OC2CN(C(=O)N3N=CCC3c3cc(F)cc(F)c3)C2)c1` (stereo not shown) [compound 115], the concentration giving a half-maximal response (EC50) was in the range of 0.0001 to 0.1 µM.
Same read-out and setting: to `Cc1nc(C)n(-c2ccc(F)c(OC3CN(C(=O)N4N=CCC4c4cc(F)cc(F)c4)C3)c2)n1` (stereo not shown) [compound 116] belongs 0.0001 to 0.1 µM.

Still in this test, the particulars now being: Homo sapiens; HT-29 cells, FBS free medium, TNF-α (10 ng/ml), SMAC mimetic (6 uM), zVAD-FMK (10 μM), 20 hours; geometric mean EC50; read-out: Cell activity (EC50) of Compounds 117-281.
As to `COC(=O)Cn1nc(C)c(-c2cc(OC3CN(C(=O)N4N=CC[C@H]4c4cc(F)cc(F)c4)C3)c(F)cn2)c1C` [compound 118, methyl (S)-2-(4-(4-((1-(5-(3,5-difluorophenyl)-4,5-dihydro-1H-pyrazole-1-carbonyl)azetidin-3-yl)oxy)-5-fluoropyridin-2-yl)-3,5-dimethyl-1H-pyrazol-1-yl)acetate], the EC50 lay in the range of 1 to 10 µM.
Same read-out and setting: to `CN(C)CCNc1cnn(C)c1-c1cc(OC2CN(C(=O)N3N=CC[C@H]3c3cc(F)cc(F)c3)C2)c(F)cn1` [compound 119, (S)-(5-(3,5-difluorophenyl)-4,5-dihydro-1H-pyrazol-1-yl)(3-((2-(4-((2-(dimethylamino)ethyl)amino)-1-methyl-1H-pyrazol-5-yl)-5-fluoropyridin-4-yl)oxy)azetidin-1-yl)methanone] belongs 0.1 to 1 µM.
Still for that read-out and setting: to `Cn1ncc(NCCN2CCOCC2)c1-c1cc(OC2CN(C(=O)N3N=CC[C@H]3c3cc(F)cc(F)c3)C2)c(F)cn1` [compound 120, (S)-(5-(3,5-difluorophenyl)-4,5-dihydro-1H-pyrazol-1-yl)(3-((5-fluoro-2-(1-methyl-4-((2-morpholinoethyl)amino)-1H-pyrazol-5-yl)pyridin-4-yl)oxy)azetidin-1-yl)methanone] belongs 0.0001 to 0.1 µM; to `COCC(=O)Nc1cnn(C)c1-c1cc(OC2CN(C(=O)N3N=CC[C@H]3c3cc(F)cc(F)c3)C2)c(F)cn1` [compound 121, (S)—N-(5-(4-((1-(5-(3,5-difluorophenyl)-4,5-dihydro-1H-pyrazole-1-carbonyl)azetidin-3-yl)oxy)-5-fluoropyridin-2-yl)-1-methyl-1H-pyrazol-4-yl)-2-methoxyacetamide], 0.0001 to 0.1 µM.
Same read-out and setting: to `CN(C)CC(=O)Nc1cnn(C)c1-c1cc(OC2CN(C(=O)N3N=CC[C@H]3c3cc(F)cc(F)c3)C2)c(F)cn1` [compound 122, (S)—N-(5-(4-((1-(5-(3,5-difluorophenyl)-4,5-dihydro-1H-pyrazole-1-carbonyl)azetidin-3-yl)oxy)-5-fluoropyridin-2-yl)-1-methyl-1H-pyrazol-4-yl)-2-(dimethylamino)acetamide] belongs 0.0001 to 0.1 µM; to `CN1CCN(CC(=O)Nc2cnn(C)c2-c2cc(OC3CN(C(=O)N4N=CC[C@H]4c4cc(F)cc(F)c4)C3)c(F)cn2)CC1` [compound 123, (S)—N-(5-(4-((1-(5-(3,5-difluorophenyl)-4,5-dihydro-1H-pyrazole-1-carbonyl)azetidin-3-yl)oxy)-5-fluoropyridin-2-yl)-1-methyl-1H-pyrazol-4-yl)-2-(4-methylpiperazin-1-yl)acetamide], 0.1 to 1 µM; to `CCc1nn(-c2cc(OC3CN(C(=O)N4N=CC[C@H]4c4cc(F)cc(F)c4)C3)c(F)cn2)c(C)c1C#N` [compound 124, (S)-1-(4-((1-(5-(3,5-difluorophenyl)-4,5-dihydro-1H-pyrazole-1-carbonyl)azetidin-3-yl)oxy)-5-fluoropyridin-2-yl)-3-ethyl-5-methyl-1H-pyrazole-4-carbonitrile], 0.0001 to 0.1 µM.
As to `CNc1nn(C)c(-c2cc(OC3CN(C(=O)N4N=CC[C@H]4c4cc(F)cc(F)c4)C3)c(F)cn2)c1C` [compound 125, (S)-(5-(3,5-difluorophenyl)-4,5-dihydro-1H-pyrazol-1-yl)(3-((2-(1,4-dimethyl-3-(methylamino)-1H-pyrazol-5-yl)-5-fluoropyridin-4-yl)oxy)azetidin-1-yl)methanone], the EC50 lay within 0.0001 to 0.1 µM.
Still for that read-out and setting: to `Cc1cn[nH]c1-c1cc(OC2CN(C(=O)N3N=CC[C@H]3c3cc(F)cc(F)c3)C2)c(F)cn1` [compound 126, (S)-(5-(3,5-difluorophenyl)-4,5-dihydro-1H-pyrazol-1-yl)(3-((5-fluoro-2-(4-methyl-1H-pyrazol-5-yl)pyridin-4-yl)oxy)azetidin-1-yl)methanone] belongs 0.0001 to 0.1 µM.
Still for that read-out and setting: in the case of `Cc1nsc(C)c1-c1cc(OC2CN(C(=O)N3N=CC[C@H]3c3cc(F)cc(F)c3)C2)c(F)cn1` [compound 127, (S)-(5-(3,5-difluorophenyl)-4,5-dihydro-1H-pyrazol-1-yl)(3-((2-(3,5-dimethylisothiazol-4-yl)-5-fluoropyridin-4-yl)oxy)azetidin-1-yl)methanone] it was 0.0001 to 0.1 µM; in that of `CCOC(=O)c1c(C)cc(C)n1-c1cc(OC2CN(C(=O)N3N=CC[C@H]3c3cc(F)cc(F)c3)C2)c(F)cn1` [compound 128, Ethyl (S)-1-(4-((1-(5-(3,5-difluorophenyl)-4,5-dihydro-1H-pyrazole-1-carbonyl)azetidin-3-yl)oxy)-5-fluoropyridin-2-yl)-3,5-dimethyl-1H-pyrrole-2-carboxylate], 0.0001 to 0.1 µM; in that of `COC(=O)c1cc(C)n(-c2cc(OC3CN(C(=O)N4N=CC[C@H]4c4cc(F)cc(F)c4)C3)c(F)cn2)c1C` [compound 129, methyl (S)-1-(4-((1-(5-(3,5-difluorophenyl)-4,5-dihydro-1H-pyrazole-1-carbonyl)azetidin-3-yl)oxy)-5-fluoropyridin-2-yl)-2,5-dimethyl-1H-pyrrole-3-carboxylate], 0.0001 to 0.1 µM.
The same measure, in the same setting: in the case of `Cc1nn(C2COC2)c(C)c1-c1cc(OC2CN(C(=O)N3N=CC[C@H]3c3cc(F)cc(F)c3)C2)c(F)cn1` [compound 130, (S)-(5-(3,5-difluorophenyl)-4,5-dihydro-1H-pyrazol-1-yl)(3-((2-(3,5-dimethyl-1-(oxetan-3-yl)-1H-pyrazol-4-yl)-5-fluoropyridin-4-yl)oxy)azetidin-1-yl)methanone] it was 0.0001 to 0.1 µM.
Take `Cc1nn(C2CNC2)c(C)c1-c1cc(OC2CN(C(=O)N3N=CC[C@H]3c3cc(F)cc(F)c3)C2)c(F)cn1` [compound 131, (S)-(3-((2-(1-(azetidin-3-yl)-3,5-dimethyl-11H-pyrazol-4-yl)-5-fluoropyridin-4-yl)oxy)azetidin-1-yl)(5-(3,5-difluorophenyl)-4,5-dihydro-1H-pyrazol-1-yl)methanone]: the EC50 fell in the range of 0.0001 to 0.1 µM.
Still for that read-out and setting: to `Cc1nn(CC2CC2)c(C)c1-c1cc(OC2CN(C(=O)N3N=CC[C@H]3c3cc(F)cc(F)c3)C2)c(F)cn1` [compound 132, (S)-(3-((2-(1-(cyclopropylmethyl)-3,5-dimethyl-1H-pyrazol-4-yl)-5-fluoropyridin-4-yl)oxy)azetidin-1-yl)(5-(3,5-difluorophenyl)-4,5-dihydro-1H-pyrazol-1-yl)methanone] belongs 0.0001 to 0.1 µM.
